According to patent US20250388574A1, “HETEROCYCLIC COMPOUNDS AS TRIGGERING RECEPTOR EXPRESSED ON MYELOID CELLS 2 AGONISTS AND METHODS OF USE” (AMGEN INC., priority 2020, published 2025):

Molecular target: hTREM2 (Homo sapiens, UniProt Q9NZC2)
Assay: Phospho-Syk AlphaScreen/AlphaLISA assay in TREM2 and DAP12 overexpressing HEK293 cells (Example A1)
Format: cell-based
Parameters: expressed in transfected cells
Details: HEK293 cells; for EC50: read-out: hTREM2 EC50
Experimental: Pharmacological measurements of TREM2 signaling through DAP12 were made with TREM2 and DAP12 overexpressing HEK293 cells stable cell lines that had been single-cell cloned (“TREM2/DAP12-HEK”). The readout of the TREM2 signaling utilized Perkin Elmer AlphaScreen/AlphaLISA technology monitoring the phosphorylation levels of the Syk kinase. TREM2/DAP12-HEK cell lines were cultured in DMEM-F12 (Corning 10-092-CM) supplemented with 1× Penicillin/Streptomycin (Corning 30-002-CI), 1× GlutaMAX (Gibco 35050-061), and 10% Fetal Bovine Serum (Life Technologies 10099) referred to as “HEK Culture Medium”. Suspensions of TREM2/DAP12-HEK cells were prepared in HEK Culture Medium and dispensed into 384-well poly-D-lysine coated microplates (Corning 354661) at a density of 20,000 cells/well using a Multidrop Combi peristaltic microplate dispenser (Thermo), 25 uL volume of cell suspension/well. Plates containing cells were then incubated for 20 hours in a humidified cell culture incubator at 37° C. with 5% CO2 (Thermo). […] Assay Buffer contained diluted test articles (in 1% final DMSO concentration for compounds) or 100 nM anti-human/mouse TREM2 antibody (R&D Systems MAB17291) as a positive control, 100 nM or rat IgG2B isotype Ab as a negative control (R&D Systems MAB0061). Incubated the plates with test articles and controls for 45 minutes at room temperature and then aspirated/removed the medium from each well of the plates. Used a Multidrop Combi peristaltic liquid handler (Thermo) to dispense 15 uL/well of “Cell Lysis Immunoassay Buffer”. The Cell Lysis Immunoassay Buffer contained M-PER Mammalian Protein Extraction Reagent (Pierce/ThermoFisher 78505), 1× Halt Phosphatase Inhibitor Cocktail (ThermoFisher #78427), 0.1875 nM anti-phospho-Syk ([…]/526) ([…]) rabbit mAb (Cell Signaling Technologies catalog #2710), and 1.5 nM biotinylated Mouse anti-human Syk (4D10) antibody (BD Biosciences, catalog #624008). Incubated plates for 1 hour at room temperature after the addition of the Cell Lysis Immunoassay Buffer. Used the Multidrop Combi liquid handler to dispense 15 μL of AlphaScreen Acceptor Bead Solution containing 7.5 μg/mL anti-rabbit IgG (Fc specific) AlphaLISA Acceptor Beads (Perkin Elmer A[…]) in 1× Immunoassay buffer (Perkin Elmer A[…]) to each well of the microplates. Incubated plates for 2 hours at room temperature. Following the incubation with the AlphaLISA Acceptor Bead Solution, used a Multidrop Combi liquid handler (Thermo) to dispense 15 μL of AlphaScreen Donor Bead Solution containing 30 μg/mL of AlphaScreen Streptavidin Donor beads (Perkin Elmer 6760002B) in 1× Immunoassay buffer (Perkin Elmer A[…]) to each well of the microplates. Incubated microplates for 2 hours protected from light sources as the AlphaScreen reagents are light sensitive. Once the final incubation was completed, acquired AlphaScreen signal from the donor and acceptor beads using an Envision high throughput multi-modal microplate reader (Perkin Elmer) calibrated to the plate type with the AlphaScreen mirror and filter-set in 384-well mode, 680 nanometer excitation wavelength. The total measurement time per well was 550 milliseconds with a 180 millisecond excitation time. After reading the AlphaScreen signal for each well of the microplates, on a plate-by-plate basis, each raw test article well value (x) was normalized to a Percent of Control (“POC”) value using the following formula: […] Each plate contained 12 of each type of control wells that were used to generate the mean values. For concentration response curve analysis with test articles tested at various concentrations, the % of activation values were analyzed with 4 Parameter Logistic or Sigmoidal Dose-Response Models using GeneData Screener (GeneData, AG) or GraphPad Prism 7 (Graphpad Software, Inc.). […] This assay may be used to test any of the compounds described herein to assess and characterize a compound's ability to act as an agonist of TREM2.

hTREM2, sequence (Q9NZC2 19-230): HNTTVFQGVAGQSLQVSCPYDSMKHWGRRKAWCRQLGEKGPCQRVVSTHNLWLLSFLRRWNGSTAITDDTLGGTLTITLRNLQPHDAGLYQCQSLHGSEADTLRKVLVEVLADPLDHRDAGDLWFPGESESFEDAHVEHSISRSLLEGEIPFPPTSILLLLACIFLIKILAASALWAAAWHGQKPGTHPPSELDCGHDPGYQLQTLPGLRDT
hTREM2, sequence (O43914 22-113 partner): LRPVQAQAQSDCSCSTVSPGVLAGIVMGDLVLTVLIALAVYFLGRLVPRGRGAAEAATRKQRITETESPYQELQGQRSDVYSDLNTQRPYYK

| Compound | Emax | EC50 |
| --- | --- | --- |
| Cc1nc2cc(N3CCO[C@H](c4ccc(OCC(F)(F)F)nc4)C3)nc(-c3ccc(Cl)cc3F)c2c(=O)n1C [Example 235, (R)-5-(4-chloro-2-fluorophenyl)-2,3-dimethyl-7-(2-(6-(2,2,2-trifluoroethoxy)pyridin-3-yl)morpholino)pyrido[4,3-d]pyrimidin-4(3H)-one] | ++++ (Emax>300) | 500 to 3000 nM |
| CCCn1c(C)nc2cc(N3CCn4ccnc4C3)nc(-c3ccc(Cl)cc3F)c2c1=O [Example 182, 5-(4-chloro-2-fluorophenyl)-7-(5,6-dihydroimidazo[1,2-a]pyrazin-7(8H)-yl)-2-methyl-3-propylpyrido[4,3-d]pyrimidin-4(3H)-one] | +++ (Emax>200 and ≤300) | 3000 to 100000 nM |
| Cc1nc2cc([C@H]3CCO[C@@H](c4cnn(C5CC5)c4)C3)nc(-c3ccc(Cl)cc3F)c2c(=O)n1C (single isomer, unassigned) [Example 165] | +++ (Emax>200 and ≤300) | < 50 nM |
| Cc1nc2cc(N3CCC(c4cccnc4)C3)nc(-c3ccc(Cl)cc3F)c2c(=O)n1C (centres unmarked) [Example 121, 5-(4-chloro-2-fluorophenyl)-2,3-dimethyl-7-(3-(3-pyridinyl)-1-pyrrolidinyl)pyrido[4,3-d]pyrimidin-4(3H)-one] | ++++ (Emax>300) | 50 to 500 nM |
| Cc1nc2cc(N3CCO[C@@H](c4cnn(C)c4)C3)nc(-c3ccc(F)cc3F)c2c(=O)n1C [Example 8, 5-(2,4-difluorophenyl)-2,3-dimethyl-7-((2S)-2-(1-methyl-1H-pyrazol-4-yl)-4-morpholinyl)-pyrido[4,3-d]pyrimidin-4(3H)-one] | ++++ (Emax>300) | 50 to 500 nM |
| ethyl (2S,4S)-4-(5-(4-chloro-2-fluorophenyl)-2,3-dimethyl-4-oxo-3,4-dihydropyrido[4,3-d]pyrimidin-7-yl)tetrahydro-2H-pyran-2-carboxylate and ethyl (2R,4R)-4-(5-(4-chloro-2-fluorophenyl)-2,3-dimethyl-4-oxo-3,4-dihydropyrido[4,3-d]pyrimidin-7-yl)tetrahydro-2H-pyran-2-carboxylate [Example 168] | +++ (Emax>200 and ≤300) | 3000 to 100000 nM |
| Cc1nc2cc(N3CCO[C@@H](c4ccnc(OCC(F)(F)F)c4)C3)nc(-c3ccc(Cl)cc3F)c2c(=O)n1C (single isomer, unassigned) [Example 96] | ++++ (Emax>300) | 500 to 3000 nM |
| Cc1nccc(C2CN(c3cc4nc(C)n(C)c(=O)c4c(-c4ccc(Cl)cc4F)n3)CCO2)n1 (centres unmarked) [Example 63, 5-(4-chloro-2-fluorophenyl)-2,3-dimethyl-7-(2-(2-methyl-4-pyrimidinyl)-4-morpholinyl)pyrido[4,3-d]pyrimidin-4(3H)-one] | ++++ (Emax>300) | 500 to 3000 nM |
| COc1cc([C@@H]2C[C@@H](c3cc4nc(C)n(C)c(=O)c4c(-c4ccc(Cl)cc4F)n3)CCO2)ccn1 [Example 268, 5-(4-chloro-2-fluorophenyl)-7-((2S,4S)-2-(2-methoxypyridin-4-yl)tetrahydro-2H-pyran-4-yl)-2,3-dimethylpyrido[4,3-d]pyrimidin-4(3H)-one] | ++++ (Emax>300) | 50 to 500 nM |
| Cc1ccc(C2CN(c3cc4nc(C)n(C)c(=O)c4c(-c4ccc(Cl)cc4F)n3)CCO2)cn1 (centres unmarked) [Example 60, 5-(4-chloro-2-fluorophenyl)-2,3-dimethyl-7-(2-(6-methyl-3-pyridinyl)-4-morpholinyl)pyrido[4,3-d]pyrimidin-4(3H)-one] | ++++ (Emax>300) | 50 to 500 nM |
| Cc1nc2cc(N3CCOC(C4CCC4)C3)nc(-c3ccc(Cl)cc3F)c2c(=O)n1C (centres unmarked) [Example 33, 5-(4-chloro-2-fluorophenyl)-7-(2-cyclobutyl-4-morpholinyl)-2,3-dimethylpyrido[4,3-d]pyrimidin-4(3H)-one] | ++++ (Emax>300) | 500 to 3000 nM |

Other lines, results leading:

| Emax | EC50 | Compound |
| --- | --- | --- |
| +++ (Emax>200 and ≤300) | 500 to 3000 nM | CCCn1c(C)nc2cc(N3CCOC(CF)C3)nc(-c3ccc(Cl)cc3F)c2c1=O (centres unmarked) [Example 185, 5-(4-chloro-2-fluorophenyl)-7-(2-(fluoromethyl)morpholino)-2-methyl-3-propylpyrido[4,3-d]pyrimidin-4(3H)-one] |
| +++ (Emax>200 and ≤300) | < 50 nM | CCn1c(C)nc2cc(N3CCO[C@@H](c4ccnc(C)c4)C3)nc(-c3ccc(Cl)cc3F)c2c1=O [Example 149, 5-(4-chloro-2-fluorophenyl)-3-ethyl-2-methyl-7-((2S)-2-(2-methyl-4-pyridinyl)-4-morpholinyl)pyrido[4,3-d]pyrimidin-4(3H)-one] |
| +++ (Emax>200 and ≤300) | 3000 to 100000 nM | Cc1nc2cc(N3C[C@@H](C)O[C@H](C4CC4)C3)nc(-c3ccc(Cl)cc3F)c2c(=O)n1C (single isomer, unassigned) [Example 36] |
| +++ (Emax>200 and ≤300) | 3000 to 100000 nM | CCc1nnc([C@@H]2CN(c3cc4nc(C)n(C)c(=O)c4c(-c4ccc(Cl)cc4F)n3)CCO2)[nH]1 [Example 241, (S)-5-(4-chloro-2-fluorophenyl)-7-(2-(5-ethyl-4H-1,2,4-triazol-3-yl)morpholino)-2,3-dimethylpyrido[4,3-d]pyrimidin-4(3H)-one] |
| +++ (Emax>200 and ≤300) | 3000 to 100000 nM | Cc1noc([C@H]2CCCN(c3cc4nc(C)n(C)c(=O)c4c(-c4ccc(Cl)cc4F)n3)C2)n1 (single isomer, unassigned) [Example 112] |
| +++ (Emax>200 and ≤300) | 500 to 3000 nM | Cc1nc2cc(N3CCOC(c4noc(-c5ccccc5)n4)C3)nc(-c3ccc(Cl)cc3F)c2c(=O)n1C (centres unmarked) [Example 93, 5-(4-chloro-2-fluorophenyl)-2,3-dimethyl-7-(2-(5-phenyl-1,2,4-oxadiazol-3-yl)-4-morpholinyl)pyrido[4,3-d]pyrimidin-4(3H)-one] |
| ++++ (Emax>300) | 500 to 3000 nM | Cc1nc2cc(N3CCO[C@@H](C4CC4)C3)nc(-c3ccc(Cl)cc3F)c2c(=O)n1C [Example 188, (S)-5-(4-chloro-2-fluorophenyl)-7-(2-cyclopropylmorpholino)-2,3-dimethylpyrido[4,3-d]pyrimidin-4(3H)-one] |
| ++++ (Emax>300) | < 50 nM | COc1cc([C@@H]2CN(c3cc4nc(C)n(C)c(=O)c4c(-c4ccc(Cl)cc4F)n3)CCO2)ccn1 [Example 243, (R)-5-(4-chloro-2-fluorophenyl)-7-(2-(2-methoxypyridin-4-yl)morpholino)-2,3-dimethylpyrido[4,3-d]pyrimidin-4(3H)-one] |
| +++ (Emax>200 and ≤300) | 500 to 3000 nM | Cc1nc2cc(N3CCO[C@H](c4ccnc(C(F)(F)F)c4)C3)nc(-c3ccc(Cl)cc3F)c2c(=O)n1C [Example 265, (R)-5-(4-chloro-2-fluorophenyl)-2,3-dimethyl-7-(2-(2-(trifluoromethyl)pyridin-4-yl)morpholino)pyrido[4,3-d]pyrimidin-4(3H)-one] |
| ++++ (Emax>300) | 500 to 3000 nM | Cc1nc2cc(N3CCO[C@@H](c4cnn(C)c4)C3)nc(-c3ccc(F)cc3)c2c(=O)n1C [Example 229, (S)-5-(4-fluorophenyl)-2,3-dimethyl-7-(2-(1-methyl-1H-pyrazol-4-yl)morpholino)pyrido[4,3-d]pyrimidin-4(3H)-one] |
| ++++ (Emax>300) | 500 to 3000 nM | Cc1nc2cc(N3CCO[C@](C)(c4cnn(C)c4)C3)nc(-c3ccc(Cl)cc3F)c2c(=O)n1C [Example 225, (R)-5-(4-chloro-2-fluorophenyl)-2,3-dimethyl-7-(2-methyl-2-(1-methyl-1H-pyrazol-4-yl)morpholino)pyrido[4,3-d]pyrimidin-4(3H)-one] |
